Source: PMC13210772, “Dual FLT3/MAPK14 Proteolysis-Targeting Chimera (PROTAC) Induces Potent Acute Myeloid Leukemia Cell Death” (Pharmaceuticals, 2026)

Key:
MV4-11 = system: MV4-11; parameters: method as in PMID 30427680, PMID 34959180, PMID 34694800, PMID 36332882, PMID 38655686; conditions: reported FLT3 PROTACs, Figure 1; cited from earlier work
MOLM-13 = system: MOLM-13; parameters: method as in PMID 30427680, PMID 34959180, PMID 34694800, PMID 36332882, PMID 38655686; conditions: reported FLT3 PROTACs, Figure 1; cited from earlier work
CSNK1D = CSNK1D (Homo sapiens, UniProt P48730); test: NanoBRET CELLinib128
Chain of CSNK1D (P48730 whole entry): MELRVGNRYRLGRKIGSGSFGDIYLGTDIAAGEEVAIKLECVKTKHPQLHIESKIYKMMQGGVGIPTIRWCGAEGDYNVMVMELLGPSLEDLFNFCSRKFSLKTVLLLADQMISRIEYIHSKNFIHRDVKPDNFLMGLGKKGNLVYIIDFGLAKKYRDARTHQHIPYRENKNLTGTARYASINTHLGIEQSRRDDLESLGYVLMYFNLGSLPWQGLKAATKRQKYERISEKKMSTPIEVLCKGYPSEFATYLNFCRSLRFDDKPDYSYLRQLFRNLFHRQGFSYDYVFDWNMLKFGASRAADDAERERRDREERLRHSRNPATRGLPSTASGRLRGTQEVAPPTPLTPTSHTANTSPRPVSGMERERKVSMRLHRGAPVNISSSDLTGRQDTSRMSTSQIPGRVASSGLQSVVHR

FLT3-ITD [1] = test: KINOMEscan binding assay
Experimental: Binding to FLT3-ITD was determined using the KINOMEscan^TM assay (Eurofins DiscoverX Corporation, San Diego, CA, USA)
Kinase-tagged T7 phage strains were prepared in an E. coli host derived from the BL21 strain. E. coli were grown to log-phase and infected with T7 phage and incubated with shaking at 32 °C until lysis. The lysates were centrifuged and filtered to remove cell debris. The remaining kinases were produced in HEK-293 cells and subsequently tagged with DNA for qPCR detection. […] The liganded beads were blocked with excess biotin and washed with blocking buffer (SeaBlock (Pierce), 1% BSA, 0.05% Tween 20, 1 mM DTT) to remove unbound ligand and to reduce non-specific binding. […] The compounds were then diluted directly into the assays such that the final concentration of DMSO was 0.9%. All reactions performed in polypropylene 384-well plate. Each was a final volume of 0.02 mL. […] The kinase concentration in the eluates was measured by qPCR.

FLT3-ITD [2] = molecular target: T1, FLT3-ITD (Homo sapiens, UniProt P36888, INS600HVDFREYEYD); test: FLT3-ITD degradation, immunoblot in MV4-11 cells; conditions: MV4-11 cells, 50 nM, 24 h
T1 sequence (P36888 with tags, fused parts or gaps INS600HVDFREYEYD): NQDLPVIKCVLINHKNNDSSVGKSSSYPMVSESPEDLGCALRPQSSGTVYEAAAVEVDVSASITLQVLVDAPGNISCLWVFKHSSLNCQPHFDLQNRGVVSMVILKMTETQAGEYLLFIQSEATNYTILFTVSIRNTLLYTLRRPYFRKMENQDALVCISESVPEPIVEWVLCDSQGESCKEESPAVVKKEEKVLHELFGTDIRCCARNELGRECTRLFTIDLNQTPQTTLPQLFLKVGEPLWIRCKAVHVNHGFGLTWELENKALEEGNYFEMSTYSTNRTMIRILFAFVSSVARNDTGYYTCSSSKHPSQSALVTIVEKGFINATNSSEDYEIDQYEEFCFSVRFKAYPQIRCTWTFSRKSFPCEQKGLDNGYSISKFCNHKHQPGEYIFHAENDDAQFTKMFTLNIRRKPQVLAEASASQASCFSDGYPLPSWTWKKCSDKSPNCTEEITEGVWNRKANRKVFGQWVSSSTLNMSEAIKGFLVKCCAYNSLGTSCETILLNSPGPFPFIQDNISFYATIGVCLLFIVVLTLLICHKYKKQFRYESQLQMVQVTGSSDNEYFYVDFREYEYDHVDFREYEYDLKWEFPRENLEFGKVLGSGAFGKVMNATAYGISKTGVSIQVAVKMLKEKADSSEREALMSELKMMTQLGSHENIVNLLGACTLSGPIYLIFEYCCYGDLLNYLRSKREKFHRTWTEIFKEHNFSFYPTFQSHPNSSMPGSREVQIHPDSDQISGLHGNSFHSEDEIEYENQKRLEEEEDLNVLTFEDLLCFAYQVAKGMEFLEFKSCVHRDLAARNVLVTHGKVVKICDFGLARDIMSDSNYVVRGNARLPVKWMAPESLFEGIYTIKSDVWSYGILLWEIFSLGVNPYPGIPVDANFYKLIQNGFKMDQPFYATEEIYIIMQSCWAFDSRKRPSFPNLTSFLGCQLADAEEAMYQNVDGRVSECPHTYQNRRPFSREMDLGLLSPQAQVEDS

MAPK14 [3] = molecular target: T2, MAPK14 (Homo sapiens, UniProt Q16539); test: MAPK14 degradation, immunoblot in leukemia cells; assay type: cell-based; parameters: endogenous in cells; host or cells: K562, RS4-11, MV4-11, MOLM-13 (A17); MV4-11 (A20); conditions: K562, RS4-11, MV4-11 and MOLM-13 cells; 50 nM MA191, 24 h
T2 sequence (Q16539 2-360 limits assumed): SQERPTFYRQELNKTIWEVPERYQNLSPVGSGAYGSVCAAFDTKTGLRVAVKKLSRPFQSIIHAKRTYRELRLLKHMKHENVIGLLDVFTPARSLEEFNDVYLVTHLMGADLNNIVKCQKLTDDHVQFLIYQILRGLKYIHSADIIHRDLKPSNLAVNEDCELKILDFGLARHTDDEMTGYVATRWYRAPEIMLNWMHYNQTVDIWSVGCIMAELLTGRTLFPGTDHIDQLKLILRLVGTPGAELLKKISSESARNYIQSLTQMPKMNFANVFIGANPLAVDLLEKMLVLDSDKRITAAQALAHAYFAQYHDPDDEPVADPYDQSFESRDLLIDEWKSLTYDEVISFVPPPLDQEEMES

MAPK14 [4] = molecular target: T2, MAPK14; test: Phosphorylation of MAPK14, immunoblot in MV4-11 cells; assay type: cell-based; parameters: endogenous in cells; host or cells: K562, RS4-11, MV4-11, MOLM-13 (A17); MV4-11 (A20)
FLT3-ITD [5] = molecular target: T1, FLT3-ITD; test: Phosphorylation of FLT3-ITD, immunoblot in MV4-11 cells; assay type: cell-based; parameters: We treated MV4-11 cells with the synthesized degraders of FLT3; endogenous in cells; host or cells: MV4-11
Excerpt: We aimed to delineate if the FLT3 inhibitor part of MA191 acts as a MAPK14 inhibitor in MV4-11 cells. We used the phosphorylation of FLT3-ITD and the phosphorylation of MAPK14 as markers for their activation. […] This finding is consistent with the detection of MAPK14 in the kinase selectivity profiling approach (Figure 3; MAPK14 is termed p38α therein).
(§1) Figure 7 Targeting MAPK14 augments anti-leukemic effects of an inhibition of FLT3-ITD. (a) The graphs show the mRNA levels of MAPK14 in leukemia cells and normal blood cells. […] All immunoblots show data from at least two independent repetitions. (c) Model for how inhibition of various signaling pathways affects AML cells (red, cytoplasm, blue, nucleus).

caspase-3 = test: Caspase-3 cleavage, immunoblot in MV4-11 cells; assay type: cell-based, human
Excerpt: The usefulness of a combined inhibition of FLT3-ITD and MAPK14 through depletion may also be effective against leukemia stem cells that require cytokines signaling through MAPK14 [48]. Further studies are necessary to test this idea.
as §1

HL-60 = system: HL-60; parameters: method as in PMID 36332882; conditions: reported FLT3 PROTAC, Figure 1; cited from earlier work
MOLM-14 = system: MOLM-14; parameters: method as in PMID 36518702; conditions: reported FLT3 PROTAC, Figure 1; cited from earlier work

**Q.** What does the source list for `Cc1c(NC(=O)CN2CCN(CC3CCN(c4ccc5c(c4)C(=O)N(C4CCC(=O)NC4=O)C5=O)CC3)CC2)c[nH]c1/C=C1\C(=O)Nc2ccc(F)cc21` (stereo not shown) [A20]?
**A.** IC50 (MV4-11): 39.9 ± 3.4 nM; IC50 (MOLM-13): 170 ± 3.4 nM

**Q.** For `CN[C@@H]1C[C@H]2O[C@@](C)([C@@H]1OC)n1c3ccccc3c3c4c(c5c6ccccc6n2c5c31)C(=O)NC4` [Staurosporine], which EC50 (CSNK1D) is on record?
**A.** The EC50 was 10400 nM.

**Q.** With `Nc1ccc(O)cc1` [compound 2] as the compound, how does the IC50 (MV4-11) read?
**A.** Its IC50 is 9.2 ± 1 nM.

**Q.** What about the IC50 (MOLM-13) of the same compound?
**A.** The IC50 was 9.5 ± 0.7 nM.

**Q.** Which IC50 (MV4-11) does the source give for `CNC(=O)c1cc(Cl)ccn1` [compound 1] here?
**A.** Its IC50 is 18.7 ± 2.1 nM.

**Q.** What about the IC50 (MOLM-13) of the same compound?
**A.** Its IC50 is 10.1 ± 1 nM.

**Q.** Which IC50 (MV4-11) does the source give for `CCc1nc(C(N)=O)c(Nc2ccc(N3CCN(CCC4CCN(CC(=O)N[C@H](C(=O)N5C[C@H](O)C[C@H]5C(=O)N[C@@H](C)c5ccc(-c6scnc6C)cc5)C(C)(C)C)CC4)CC3)c(OC)c2)nc1NC1CCOCC1` [Z29] here?
**A.** The IC50 was 5.5 ± 0.2 nM.

**Q.** And the IC50 (MOLM-13)?
**A.** Its IC50 is 8 ± 0.2 nM.

**Q.** Which “% FLT3-ITD Binding at 1 µM” value (FLT3-ITD [1]) does the source give for `Cc1ncsc1-c1ccc([C@H](C)NC(=O)[C@H]2C[C@H](O)CN2C(=O)[C@@H](NC(=O)[C@H]2CC[C@H](C(=O)N3CCN(CCNC(=O)c4cc(Oc5ccc(NC(=O)Nc6cc(C(C)(C)C)on6)cc5)ccn4)CC3)CC2)C(C)(C)C)cc1` [MA225, 4-(4-(3-(5-(tert-Butyl)isoxazol-3-yl)ureido)phenoxy)-N-(2-(4-(trans-4-(((S)-1-((2R,4S)-4-hydroxy-2-(((S)-1-(4-(4-methylthiazol-5-yl)phenyl)ethyl)carbamoyl)pyrrolidin-1-yl)-3,3-dimethyl-1-oxobutan-2-yl)carbamoyl)cyclohexanecarbonyl)piperazin-1-yl)ethyl)picolinamide] here?
**A.** The value was 97 ± 2%.

**Q.** What about the “% FLT3-ITD Degradation at 50 nM” value (FLT3-ITD [2]) of the same compound?
**A.** Its value is “No effect”.

**Q.** What about the “FLT3-ITD degradation” value (FLT3-ITD [2]) of the same compound?
**A.** Its value is “did not reduce the levels of FLT3-ITD and MAPK14”.

**Q.** And the “MAPK14 protein level, immunoblot” value (MAPK14 [3])?
**A.** The value was “did not reduce the levels of FLT3-ITD and MAPK14”.

**Q.** And the “phosphorylated MAPK14 (p-MAPK14)” value (MAPK14 [4])?
**A.** Its value is “weak inhibition of phosphorylated MAPK14”.

**Q.** What about the “phosphorylation of FLT3-ITD” value (FLT3-ITD [5]) of the same compound?
**A.** Its value is “inhibited the phosphorylation of FLT3-ITD”.

**Q.** With `Cc1ccc(-n2nc(C(C)(C)C)cc2NC(=O)Nc2ccc(OCCN3CCOCC3)c3ccccc23)cc1` [doramapimod, reference compound] as the compound, how does the caspase-3 cleavage (caspase-3) read?
**A.** The caspase-3 cleavage was “did not induce caspase-3 cleavage”.

**Q.** What about the “phosphorylation of FLT3-ITD” value (FLT3-ITD [5]) of the same compound?
**A.** Its value is “did not affect FLT3-ITD and its activity”.

**Q.** Which IC50 (MV4-11) does the source give for `Cc1ncsc1-c1ccc(CNC(=O)[C@@H]2C[C@@H](O)CN2C(=O)[C@@H](NC(=O)CCOCCOCCOc2ccc3c(c2)sc2nc(-c4ccc(NC(=O)Nc5cc(C(C)(C)C)on5)cc4)cn23)C(C)(C)C)cc1` [Quizaritinib-based PROTAC] here?
**A.** The IC50 was 0.6 ± 0.08 nM.

**Q.** Which IC50 (HL-60) does the source give for `Cc1ncsc1-c1ccc(CNC(=O)[C@@H]2C[C@@H](O)CN2C(=O)[C@@H](NC(=O)COCCOCCNC(=O)c2c(C)[nH]c(/C=C3\C(=O)Nc4ccc(F)cc43)c2C)C(C)(C)C)cc1` [PROTAC5] here?
**A.** The IC50 was 2900 ± 1500 nM.

**Q.** Which IC50 (MV4-11) does the source give for `CCc1nc(C(N)=O)c(Nc2ccc(N3CCC(N4CCN(CC5CCN(C(=O)CCOCCOCCNc6cccc7c6C(=O)N(C6CCC(=O)NC6=O)C7=O)CC5)CC4)CC3)c(OC)c2)nc1NC1CCOCC1` (stereo not shown) [CRBN(FLT3)-8] here?
**A.** The IC50 was 0.9 nM.

**Q.** What about the IC50 (MOLM-14) of the same compound?
**A.** The IC50 was 2.8 nM.

**Q.** Which IC50 (MV4-11) does the source give for `CCc1nc(C(N)=O)c(Nc2ccc(N3CCC(N4CCN(C(=O)COc5cccc6c5CN(C5CCC(=O)NC5=O)C6=O)CC4)CC3)c(OC)c2)nc1NC1CCOCC1` (stereo not shown) [LWY713] here?
**A.** The IC50 was 1.5 nM.
